What is called IC50 is the concentration that inhibits the measured activity by half. A higher IC50 goes with weaker potency. Usually inhibition stands for how much of the control response was suppressed. A higher inhibition goes with a response far below the control.

Molecules are shown by their SMILES. Where a SMILES comes first, the peptide text is derived from it. [ ]: non-standard residue; d: D form. Cha = N[C@@H](CC1CCCCC1)C(=O)O; NMeL = CN[C@@H](CC(C)C)C(=O)O; dNMeL = CN[C@H](CC(C)C)C(=O)O; dNMeV = CN[C@@H](C(=O)O)C(C)C; dAbu = CC[C@@H](N)C(=O)O

From ChEMBL document CHEMBL1146254, “Identification of Sansalvamide a analog potent against pancreatic cancer cell lines” (Bioorg Med Chem Lett, 2007) come the findings set out here.

Holding throughout (details): Homo sapiens
Assay [1] can be described thus: Cytotoxicity against WS1 cells. The assay is classed as cell-based.
Another assay deals with BXPC-3. Briefly: Cytotoxicity against BxPC3 cells at 5 uM by [3H]thymidine inhibition assay. The assay is classed as functional, cell-based.
The nature of assay [2]: Cytotoxicity against PL45 cells at 5 uM by [3H]thymidine inhibition assay. The assay is classed as functional, cell-based.

As for `CC(C)C[C@@H]1NC(=O)[C@H](CC(C)C)NC(=O)[C@H](Cc2ccccc2)N(C)C(=O)[C@H](CC(C)C)NC(=O)[C@H](CC(C)C)NC1=O`, the IC50 came out at 200 µM in assay [1], 2 µM with BXPC-3 and 5 µM in assay [2]. For the same compound, the inhibition at 5 µM in the assay with BXPC-3 stood at 62%; in assay [2], 44%.
`CC[C@H]1NC(=O)[C@H](CC(C)C)NC(=O)[C@H](CC(C)C)NC(=O)[C@H](Cc2ccccc2)NC(=O)[C@H](CC(C)C)NC1=O` (cyclo(FLL[dAbu]L)): the inhibition at 5 µM in the assay on BXPC-3 is 17%; in assay [2] it was 12%.
For `CC(C)C[C@@H]1NC(=O)[C@H](CC(C)C)NC(=O)[C@@H](Cc2ccccc2)NC(=O)[C@@H](CC(C)C)NC(=O)[C@@H](C(C)C)NC1=O` (cyclo(LL[dV][dL][dF])), in that order: 34% and 67%.
Turning to `CC(C)C[C@@H]1NC(=O)[C@H](C(C)C)NC(=O)[C@H](CC(C)C)NC(=O)[C@@H](CC(C)C)N(C)C(=O)[C@H](Cc2ccccc2)NC1=O` (cyclo([dNMeL]LVLF)), the 50% inhibitory concentration (IC50) in assay [1] turned out to be 200 µM; with BXPC-3 it was 3.8 µM; in assay [2], 3.5 µM. The figures for the inhibition at 5 µM (in the assay with BXPC-3; in assay [2]) were 51% and 52%, respectively.
Turning to `CC(C)C[C@@H]1NC(=O)[C@H](Cc2ccccc2)NC(=O)[C@H](CC(C)C)NC(=O)[C@@H](C(C)C)N(C)C(=O)[C@H](CC(C)C)NC1=O` (cyclo(FLL[dNMeV]L)), the inhibition at 5 µM in the assay with BXPC-3 worked out at 34%; in assay [2], 29%.
For `CC(C)C[C@@H]1NC(=O)[C@@H](CC(C)C)NC(=O)[C@H](Cc2ccccc2)NC(=O)[C@H](CC(C)C)NC(=O)[C@@H](C(C)C)NC1=O` (cyclo(F[dL]L[dV]L)), in that order: 13% and 32%.
On to `CC(C)C[C@@H]1NC(=O)[C@H](Cc2ccccc2)NC(=O)[C@H](CC(C)C)NC(=O)[C@@H](C(C)C)N(C)C(=O)[C@H](CC2CCCCC2)NC1=O` (cyclo([Cha][dNMeV]LFL)), for which the inhibition at 5 µM in the assay on BXPC-3 turned out to be 52%; in assay [2], 45%.
With `CC(C)C[C@@H]1NC(=O)[C@H](C(C)C)NC(=O)[C@H](CC(C)C)NC(=O)[C@H](CC(C)C)N(C)C(=O)[C@H](Cc2ccccc2)NC1=O` (cyclo(F[NMeL]LVL)), the IC50 stood at 200 µM in assay [1], 2 µM in the assay with BXPC-3 and 3 µM in assay [2]. Moreover, the inhibition at 5 µM with BXPC-3 was determined as 59%; in assay [2], 55%.
Regarding `CC(C)C[C@@H]1NC(=O)[C@H](CC(C)C)NC(=O)[C@H](CC(C)C)NC(=O)[C@@H](Cc2c[nH]c3ccccc23)NC(=O)[C@H](CC(C)C)NC1=O`, the inhibition at 5 µM turned out to be 30% in the assay on BXPC-3 and 18% in assay [2].
For the compound `CC(C)C[C@@H]1NC(=O)[C@H](C(C)C)NC(=O)[C@@H](CC(C)C)NC(=O)[C@@H](CC(C)C)NC(=O)[C@H](Cc2ccccc2)NC1=O` (cyclo(F[dL][dL]VL)), the IC50 is 200 µM in assay [1], 1.4 µM in the assay on BXPC-3 and 5 µM in assay [2]. The inhibition at 5 µM in the assay with BXPC-3 is 78%; in assay [2], 51%.
Consider `CC(C)C[C@@H]1NC(=O)[C@@H](C(C)C)NC(=O)[C@H](CC(C)C)NC(=O)[C@H](CC(C)C)N(C)C(=O)[C@H](Cc2ccccc2)NC1=O` (cyclo(F[NMeL]L[dV]L)), for which the values for the inhibition at 5 µM (with BXPC-3; in assay [2]) were 2% and 26%, respectively.
In the case of `CC(C)C[C@@H]1NC(=O)[C@H](CC(C)C)NC(=O)[C@H](CC(C)C)NC(=O)[C@@H](Cc2ccccc2)NC(=O)[C@H](CC(C)C)NC1=O`, the IC50 was found to be 200 µM in assay [1], 2 µM in the assay on BXPC-3 and 5 µM in assay [2]. The results for the inhibition at 5 µM (with BXPC-3; in assay [2]) were 64% and 48%, respectively.
Consider `CC(C)C[C@@H]1NC(=O)[C@H](Cc2ccccc2)NC(=O)[C@H](CC(C)C)N(C)C(=O)[C@H](CC(C)C)NC(=O)[C@H](CC(C)C)NC1=O`, for which the results for the inhibition at 5 µM (with BXPC-3; in assay [2]) were 46% and 27%, respectively.
The like results for `CC(C)C[C@@H]1NC(=O)[C@H](CC(C)C)NC(=O)[C@H](Cc2ccccc2)NC(=O)[C@@H](Cc2ccccc2)NC(=O)[C@H](CC(C)C)NC1=O` were, in that order, 21% and 45%.
Consider `CC(C)C[C@@H]1NC(=O)[C@H](Cc2ccccc2)NC(=O)[C@H](CC(C)C)NC(=O)[C@@H](C(C)C)NC(=O)[C@H](CC(C)C)NC1=O` (cyclo(FLL[dV]L)), for which the values for the IC50 (in assay [1]; in the assay with BXPC-3; in assay [2]) were 20 µM, 5 µM and 1.4 µM, respectively. Further, the inhibition at 5 µM amounted to 50% in the assay with BXPC-3 and 74% in assay [2].
As for `CC(C)C[C@@H]1NC(=O)[C@H](C(C)C)NC(=O)[C@H](CC(C)C)N(C)C(=O)[C@@H](CC(C)C)NC(=O)[C@H](Cc2ccccc2)NC1=O` (cyclo(F[dL][NMeL]VL)), the inhibition at 5 µM in the assay with BXPC-3 was determined as 71%; in assay [2] it was 25%.
For `CC(C)C[C@@H]1NC(=O)[C@H](C(C)C)NC(=O)[C@H](CC(C)C)NC(=O)[C@@H](CC(C)C)NC(=O)[C@H](Cc2ccccc2)NC1=O` (cyclo(F[dL]LVL)), in that order: 29% and 73%.
For `CC(C)C[C@@H]1NC(=O)[C@H](Cc2ccccc2)NC(=O)[C@@H](CC(C)C)NC(=O)[C@@H](C(C)C)NC(=O)[C@H](CC(C)C)NC1=O` (cyclo(FLL[dV][dL])), in that order: 16% and 41%.
For `CC(C)C[C@@H]1NC(=O)[C@H](Cc2ccccc2)NC(=O)[C@@H](CC(C)C)N(C)C(=O)[C@H](CC(C)C)NC(=O)[C@H](CC(C)C)NC1=O`, in that order: 2% and 5%.
With `CC(C)C[C@@H]1NC(=O)[C@H](CC(C)C)NC(=O)[C@H](Cc2ccccc2)NC(=O)[C@@H](CC(C)C)NC(=O)[C@H](CC(C)C)NC1=O`, the inhibition at 5 µM in the assay on BXPC-3 is 34%; in assay [2], 41%.
The like results for `CC(C)C[C@@H]1NC(=O)[C@H](CC(C)C)NC(=O)[C@H](Cc2ccccc2)NC(=O)[C@@H](CO)NC(=O)[C@H](CC(C)C)NC1=O` were, in that order, 25% and 32%.
The like results for `CC(C)C[C@@H]1NC(=O)[C@H](CC(C)C)NC(=O)[C@H](CC(C)C)NC(=O)[C@@H](Cc2ccc(O)cc2)NC(=O)[C@H](CC(C)C)NC1=O` were, in that order, 33% and 46%.
For `CC(C)C[C@@H]1NC(=O)[C@H](Cc2ccccc2)NC(=O)[C@H](CC(C)C)NC(=O)[C@@H](C(C)C)NC(=O)[C@H](CCCCNC(=O)Cc2ccccc2)NC1=O`, in that order: 29% and 29%.
In the case of `CC(C)C[C@@H]1NC(=O)[C@H](Cc2ccccc2)NC(=O)[C@H](CC(C)C)NC(=O)[C@@H](Cc2ccccc2)NC(=O)[C@H](CC(C)C)NC1=O` (cyclo(FLL[dF]L)), the inhibition at 5 µM in the assay with BXPC-3 is 8%; in assay [2] it was 33%.
For `CC(C)C[C@@H]1NC(=O)[C@H](Cc2ccccc2)NC(=O)[C@H](CC(C)C)NC(=O)[C@@H](CO)NC(=O)[C@H](CC(C)C)NC1=O` (cyclo(FLL[dS]L)), in that order: 22% and 25%.
With `CC(C)C[C@@H]1NC(=O)[C@H](Cc2ccccc2)NC(=O)[C@H](CC(C)C)NC(=O)[C@H](CC(C)C)NC(=O)[C@H](CC(C)C)NC1=O`, the values for the half-maximal inhibitory concentration (IC50) (in assay [1]; with BXPC-3; in assay [2]) were 200 µM, 25 µM and 70 µM, respectively. Moreover, the inhibition at 5 µM in the assay on BXPC-3 stood at 42%; in assay [2], 25%.
As for `CC(C)C[C@@H]1NC(=O)[C@H](C(C)C)NC(=O)[C@H](CC(C)C)N(C)C(=O)[C@H](CC(C)C)NC(=O)[C@H](Cc2ccccc2)NC1=O` (cyclo(FL[NMeL]VL)), the figures for the inhibition at 5 µM (in the assay with BXPC-3; in assay [2]) were 2% and 45%, respectively.
The like results for `CC(C)C[C@@H]1NC(=O)[C@@H](C(C)C)N(C)C(=O)[C@H](CC(C)C)NC(=O)[C@@H](CC(C)C)NC(=O)[C@H](Cc2ccccc2)NC1=O` (cyclo(F[dL]L[dNMeV]L)) were, in that order, 35% and 21%.
For `CC(C)C[C@@H]1NC(=O)[C@H](Cc2ccccc2)NC(=O)[C@H](CC(C)C)NC(=O)[C@H](C(C)C)NC(=O)[C@@H](CC(C)C)NC1=O` (cyclo(FL[dL]VL)), in that order: 74% and 24%.
For `CC(C)C[C@@H]1NC(=O)[C@H](Cc2ccccc2)NC(=O)[C@H](CC(C)C)NC(=O)[C@@H](C(C)C)NC(=O)[C@H](CCCCN)NC1=O` (cyclo(FLK[dV]L)), in that order: 16% and 20%.
